This is an account of results in PubChem BioAssay AID2060343 (Molecular Pharmacology Branch, DTP, NCI, 2025).

The subject of this assay is 138582-337-R-J1-PDC spheroids with HUVEC/MSC, viability. Nature of the assay: Anticancer human tumor 138582-337-R-J1-PDC patient-derived Merkel cell tumor cell line growth inhibition [IpAb]. The settings on record: for viability, T/C: stronger effect = lower value. In outline:
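Spheroids of 60% malignant cells, 25% HUVEC and 15% MSC were exposed to targeted agents combined with ipatasertib or abemaciclib. Doses started at or near clinical Cmax (10 microM when unknown) and fell in half-log steps.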

[1] abbreviates: curve of first compound, second compound 0.01 µM.
The mark [2] stands for this setting: curve of first compound, second compound 0.0316 µM.
Where [3] appears, read: curve of first compound, second compound 0.1 µM.
Setting [4] is: curve of first compound, second compound 0.316 µM.
[5] abbreviates: curve of first compound, second compound 1 µM.
[6] abbreviates: second compound 0.1 µM, first compound 0.0316 µM.
The mark [7] stands for this setting: second compound 0.1 µM, first compound 0.1 µM.
Where [8] appears, read: second compound 0.1 µM, first compound 0.316 µM.
Where [9] appears, read: second compound 0.1 µM, first compound 1 µM.
Where [10] appears, read: second compound 0.1 µM, first compound 3.16 µM.
[11] abbreviates: second compound 0.1 µM, first compound 10 µM.
Setting [12] is: second compound 0.316 µM, first compound 0.0316 µM.
Where [13] appears, read: second compound 0.316 µM, first compound 0.1 µM.
Where [14] appears, read: second compound 0.316 µM, first compound 0.316 µM.
The mark [15] stands for this setting: second compound 0.316 µM, first compound 1 µM.
The mark [16] stands for this setting: second compound 0.316 µM, first compound 3.16 µM.
Setting [17] is: second compound 0.316 µM, first compound 10 µM.
[18] abbreviates: second compound 1 µM, first compound 0.0316 µM.
[19] abbreviates: second compound 1 µM, first compound 0.1 µM.
[20] abbreviates: second compound 1 µM, first compound 0.316 µM.
Setting [21] is: second compound 1 µM, first compound 1 µM.
The mark [22] stands for this setting: second compound 1 µM, first compound 3.16 µM.
Where [23] appears, read: second compound 1 µM, first compound 10 µM.

Values joined by “and” are separate entries in the source; they are usually repeats but may differ in a detail not shown here. Equal entries are not always repeated. A value given as a limit tells only on which side of the number the result lay.
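Note: spheroids exposed to compounds for seven days.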
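Throughout, for viability, T/C: 100% = DMSO vehicle control viability.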

`Cc1nc(NC(=O)N2CCCC2C(N)=O)sc1-c1ccnc(C(C)(C)C(F)(F)F)c1` (stereo unspecified) + CCN1CCN(Cc2ccc(Nc3ncc(F)c(-c4cc(F)c5nc(C)n(C(C)C)c5c4)n3)nc2)CC1: the IC50 was 1850 nM under setting [1]; 1410 nM under setting [2]; 1140 nM under setting [3]; 1010 nM under setting [4]; 462 nM under setting [5]. Also, the viability, T/C is 95.2% (second compound 0.01 µM, first compound 0.0316 µM); 81.4% (second compound 0.01 µM, first compound 0.1 µM); 73.2% (second compound 0.01 µM, first compound 0.316 µM); 59% (second compound 0.01 µM, first compound 1 µM); 45.4% (second compound 0.01 µM, first compound 3.16 µM); 13.7% (second compound 0.01 µM, first compound 10 µM). The viability, T/C reads like this: (second compound 0.0316 µM, first compound 0.0316 µM) 94.1%; (second compound 0.0316 µM, first compound 0.1 µM) 82.3%; (second compound 0.0316 µM, first compound 0.316 µM) 69%; (second compound 0.0316 µM, first compound 1 µM) 55.4%; (second compound 0.0316 µM, first compound 3.16 µM) 40.1%; (second compound 0.0316 µM, first compound 10 µM) 18.2%. Moreover, the viability, T/C reads like this: under setting [6], 88.1%; under setting [7], 78.7%; under setting [8], 59.2%; under setting [9], 56.4%; under setting [10], 35.2%; under setting [11], 9.25%. For the same compound, the viability, T/C is, setting by setting: under setting [12], 90.8%; under setting [13], 74.8%; under setting [14], 69.7%; under setting [15], 48.2%; under setting [16], 32.1%; under setting [17], 6.45%. In addition, the viability, T/C is 89.3% under setting [18]; 84.2% under setting [19]; 54.4% under setting [20]; 35.1% under setting [21]; 10.7% under setting [22]; 1.63% under setting [23].
Consider `CC(C)n1nc(-c2ccc3oc(N)nc3c2)c2c(N)ncnc21`, for which the viability, T/C reads like this: (compound 0.000316 µM) 97% and 95%; (compound 0.001 µM) 90.5% and 88.2%; (compound 0.00316 µM) 82.9% and 83.9%; (compound 0.01 µM) 70% and 77.5%; (compound 0.0316 µM) 59.4% and 57.2%; (compound 0.1 µM) 39.2% and 46.5%. Also, the IC50 (curve of compound) is 51.9 nM and 70.1 nM.
For `Cc1nc(NC(=O)N2CCCC2C(N)=O)sc1-c1ccnc(C(C)(C)C(F)(F)F)c1` (stereo unspecified) + CC(C)NCC(C(=O)N1CCN(c2ncnc3c2C(C)CC3O)CC1)c1ccc(Cl)cc1, the IC50 under setting [3] turned out to be 1490 nM; the IC50 under setting [4] came out at 961 nM; the IC50 under setting [5] came to 704 nM; the IC50 (curve of first compound, second compound 3.16 µM) was below 31.6 nM; the IC50 (curve of first compound, second compound 10 µM) is below 31.6 nM. Moreover, the viability, T/C is 93.4% under setting [6]; 77.3% under setting [7]; 67.5% under setting [8]; 52.8% under setting [9]; 47.6% under setting [10]; 22.7% under setting [11]. In addition, the viability, T/C is, setting by setting: under setting [12], 81.3%; under setting [13], 71.7%; under setting [14], 63.1%; under setting [15], 42.7%; under setting [16], 45.7%; under setting [17], 16.4%. In addition, the viability, T/C was 67.2% under setting [18]; 60.4% under setting [19]; 59.5% under setting [20]; 43.5% under setting [21]; 36.4% under setting [22]; 14.2% under setting [23]. Further, the viability, T/C was 49.9% (second compound 3.16 µM, first compound 0.0316 µM); 43.9% (second compound 3.16 µM, first compound 0.1 µM); 44.9% (second compound 3.16 µM, first compound 0.316 µM); 35.7% (second compound 3.16 µM, first compound 1 µM); 27.1% (second compound 3.16 µM, first compound 3.16 µM); 5.2% (second compound 3.16 µM, first compound 10 µM). The viability, T/C runs as follows: (second compound 10 µM, first compound 0.0316 µM) 40.5%; (second compound 10 µM, first compound 0.1 µM) 40%; (second compound 10 µM, first compound 0.316 µM) 32.9%; (second compound 10 µM, first compound 1 µM) 25.7%; (second compound 10 µM, first compound 3.16 µM) 15.2%; (second compound 10 µM, first compound 10 µM) 1.06%.
`CC1(C)CCC(CN2CCN(c3ccc(C(=O)NS(=O)(=O)c4ccc(NCC5CCOCC5)c([N+](=O)[O-])c4)c(Oc4cnc5[nH]ccc5c4)c3)CC2)=C(c2ccc(Cl)cc2)C1`: the viability, T/C by setting is: (compound 0.0316 µM) 86% and 96.1%; (compound 0.1 µM) 83.1% and 79.8%; (compound 0.316 µM) 74.2% and 75.6%; (compound 1 µM) 80.1% and 87.6%; (compound 3.16 µM) 97% and 94.6%; (compound 10 µM) 78% and 68.1%. The IC50 (curve of compound) was above 10000 nM.
`CC(C)(C)c1cnc(CSc2cnc(NC(=O)C3CCNCC3)s2)o1` + CCN1CCN(Cc2ccc(Nc3ncc(F)c(-c4cc(F)c5nc(C)n(C(C)C)c5c4)n3)nc2)CC1: the IC50 reads like this: under setting [1], 145 nM; under setting [2], 124 nM; under setting [3], 120 nM; under setting [4], 99.5 nM; under setting [5], 67.7 nM. Besides, the viability, T/C is 107% (second compound 0.01 µM, first compound 0.00949 µM); 109% (second compound 0.01 µM, first compound 0.03 µM); 79% (second compound 0.01 µM, first compound 0.0949 µM); 0.85% (second compound 0.01 µM, first compound 0.3 µM); 0.5% (second compound 0.01 µM, first compound 0.949 µM); 0.66% (second compound 0.01 µM, first compound 3 µM). Further, the viability, T/C is 96.7% (second compound 0.0316 µM, first compound 0.00949 µM); 103% (second compound 0.0316 µM, first compound 0.03 µM); 64.9% (second compound 0.0316 µM, first compound 0.0949 µM); 0.68% (second compound 0.0316 µM, first compound 0.3 µM); 0.35% (second compound 0.0316 µM, first compound 0.949 µM); 0.65% (second compound 0.0316 µM, first compound 3 µM). Moreover, the viability, T/C is 91.6% (second compound 0.1 µM, first compound 0.00949 µM); 91.3% (second compound 0.1 µM, first compound 0.03 µM); 62.4% (second compound 0.1 µM, first compound 0.0949 µM); 0.43% (second compound 0.1 µM, first compound 0.3 µM); 0.5% (second compound 0.1 µM, first compound 0.949 µM); 0.5% (second compound 0.1 µM, first compound 3 µM). For the same compound, the viability, T/C by setting is: (second compound 0.316 µM, first compound 0.00949 µM) 92.9%; (second compound 0.316 µM, first compound 0.03 µM) 96.5%; (second compound 0.316 µM, first compound 0.0949 µM) 52.1%; (second compound 0.316 µM, first compound 0.3 µM) 0.57%; (second compound 0.316 µM, first compound 0.949 µM) 0.45%; (second compound 0.316 µM, first compound 3 µM) 0.7%. In addition, the viability, T/C was 88.7% (second compound 1 µM, first compound 0.00949 µM); 94.7% (second compound 1 µM, first compound 0.03 µM); 32.7% (second compound 1 µM, first compound 0.0949 µM); 0.63% (second compound 1 µM, first compound 0.3 µM); 0.5% (second compound 1 µM, first compound 0.949 µM); 0.78% (second compound 1 µM, first compound 3 µM).
In the case of `Cn1ncc(Cl)c1-c1cc(C(=O)NC(CN)Cc2cccc(F)c2)sc1Cl` (stereo unspecified), the viability, T/C (compound 0.0316 µM) is 89.5% and 99.6%; the viability, T/C (compound 0.1 µM) was 80.9% and 77%; the viability, T/C (compound 0.316 µM) is 86.6% and 67.6%; the viability, T/C (compound 1 µM) is 72.8% and 61.9%; the viability, T/C (compound 3.16 µM) was 66.4% and 46%; the viability, T/C (compound 10 µM) was 0.28% and 0.56%. Besides, the IC50 (curve of compound) was 4050 nM and 1720 nM.

For orientation: IC50 means the point on the concentration scale where inhibition reaches its midpoint. By viability, T/C is commonly meant the result in the treated group divided by that in the control group, in per cent.
